Experimental data: article PMC5218480 (PLoS ONE, 2017)

Tested on: MV-4-11 cells
Experiment: Gene expression microarray analysis (Affymetrix PrimeView) and GSEA
Type: cell-based, human
Conditions: gene FGFR1OP, FGFR1 oncogene partner; Azacitidine 1 mM; LIST F

Nc1ncn([C@@H]2O[C@H](CO)[C@@H](O)[C@H]2O)c(=O)n1 [azacitidine]
RFU, FGFR1OP (ProbeSet 11751329_s_at): 410.33 RFU
